This note sets out measurements from US7204984B2, “Acetyllysine-recognizing monoclonal antibody and process for producing the same” (Japan Science and Technology Corporation, priority 2001, dated 2007).

Non-standard residues stand in square brackets, D forms with d. Residues, ends and D or L forms follow the SMILES beside them. *: point of attachment. Asu = N[C@@H](CCCCCC(=O)O)C(=O)O; NHOH = ON*

The test system of the experiment is histone-deacetylase. Description: Histone acetylation in cells treated with CHAP31 (Western blotting). It counts as cell-based. Particulars: 1 μM, 24 hours, detected with Clone-1 antibody. The method, then: Five types of cells, B16/BL6, MOLT-4F, HeLa-S3, COS-1, and COS-7 were treated with, 1 μM of histone-deacetylase inhibitor, CHAP31, for 24 hours, and then cell lysates were prepared and developed on an electrophoresis, followed by detecting acetylated proteins using the above four antibodies as primary antibodies. In FIGS. 2, A, B, C, and D indicate the results of the detections using Clone-1, Clone-2, Clone-3, and Clone-4, respectively. The concentration of the primary antibodies used for the Western blotting were 107 ng/ml, 65.7 ng/ml, 258 ng/ml, and 158 ng/ml, respectively, and each of these concentration provide the same reactivity (A492=1) in ELISA where acetylated bovine serum albumin was immobilized. The total cell lysates were prepared from the cells (+) after subjecting each cell in the 1 μM CHAP31 treatment for 24 hours or the cells (−) without the treatment. In each lane, 20 μg of protein was loaded. Five types of cells being used were 1: B16/BL6, 2: MOLT-4F, 3: HeLa-S3, 4: COS-1, and 5: COS-7, respectively.

Turning to `CC[C@H](C)[C@@H]1NC(=O)[C@@H](Cc2ccc(OC)cc2)NC(=O)[C@H](CCCCCC(=O)NO)NC(=O)[C@H]2CCCN2C1=O` [CHAP31] (cyclo([Asu](NHOH)[dY](Me)I[dP])), the acetylation of histone result is given as “increased”.
